This note sets out measurements from patent publication US20240059691A1 (KALVISTA PHARMACEUTICALS LIMITED, priority 2020, published 2024).

The structures appear in SMILES notation.

The target of one series is Thrombin (Homo sapiens (Human), UniProt P00734). In words: Determination of related protease inhibition: Thrombin (fluorogenic substrate at Km). It counts as biochemical. Conditions: 25° C. A digest of the protocol: (§1)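 Human enzyme incubated with test compound over a concentration range and a fluorogenic substrate at its Km concentration. Liberated fluorescence monitored over 5 min at 25 °C; linear rate per minute expressed as % of uninhibited activity, and IC50 taken as the concentration giving 50% inhibition.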

A further series deals with Trypsin. Description: Determination of related protease inhibition: Trypsin (fluorogenic substrate at Km). It is filed as biochemical, human. Conditions: 25° C. On the procedure:
(§2) Determination of Related Protease Inhibition
(§3) In vitro inhibition of related proteases was determined using an ([…] assay based on standard literature methods (see e.g. Shori et al., Biochem. Pharmacol., 1992, 43, 1209; Bouckaert et al., European Journal of Medicinal Chemistry 110 (2016) 181). Human serine protease enzymes Plasma Kallikrein, KLK1, FXa, Plasmin, Thrombin and Trypsin were assayed for enzymatic activity using an appropriate fluorogenic substrate at Km concentration, FXIa at fixed substrate concentration of 100 μM, and various concentrations of the test compound. Protease activity was measured by monitoring the accumulation of liberated fluorescence from the substrate over […]. The linear rate of fluorescence increase per minute was expressed as percentage (%) activity. IC50 values were calculated as the concentration of inhibitor giving 50% inhibition of the uninhibited enzyme activity (100%).

The target of a further series is Plasma Kallikrein (Homo sapiens (Human), UniProt P03952). In words: Determination of related protease inhibition: Plasma Kallikrein (fluorogenic substrate at Km). It counts as biochemical. Conditions: 25° C., read-out: IC50 (human PKal). A digest of the protocol: as §1
Chain of Plasma Kallikrein (P03952 391-638): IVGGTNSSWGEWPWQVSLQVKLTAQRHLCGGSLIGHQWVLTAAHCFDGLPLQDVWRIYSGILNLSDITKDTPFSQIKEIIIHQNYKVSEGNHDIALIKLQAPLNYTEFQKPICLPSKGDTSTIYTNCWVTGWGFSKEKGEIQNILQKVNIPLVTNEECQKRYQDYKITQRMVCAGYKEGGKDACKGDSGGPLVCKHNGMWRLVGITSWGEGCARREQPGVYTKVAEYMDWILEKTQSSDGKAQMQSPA
Chain of Plasma Kallikrein (P03952 20-390 partner): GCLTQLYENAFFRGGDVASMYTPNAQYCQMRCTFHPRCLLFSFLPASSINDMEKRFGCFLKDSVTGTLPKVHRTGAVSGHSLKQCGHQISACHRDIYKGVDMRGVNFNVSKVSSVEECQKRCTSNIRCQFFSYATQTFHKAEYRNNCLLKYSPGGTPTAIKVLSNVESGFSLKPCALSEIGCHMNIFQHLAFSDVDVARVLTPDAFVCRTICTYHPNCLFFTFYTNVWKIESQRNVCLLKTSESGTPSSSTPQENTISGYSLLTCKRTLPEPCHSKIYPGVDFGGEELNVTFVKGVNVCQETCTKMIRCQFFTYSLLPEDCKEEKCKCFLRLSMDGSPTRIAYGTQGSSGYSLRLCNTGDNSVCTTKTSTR
In a further series the target is FXIa (Homo sapiens (Human), UniProt P03951). In words: Determination of related protease inhibition: FXIa (fixed substrate concentration of 100 μM). It is filed as biochemical. Conditions: 25° C.
Chain of FXIa (P03951 388-625): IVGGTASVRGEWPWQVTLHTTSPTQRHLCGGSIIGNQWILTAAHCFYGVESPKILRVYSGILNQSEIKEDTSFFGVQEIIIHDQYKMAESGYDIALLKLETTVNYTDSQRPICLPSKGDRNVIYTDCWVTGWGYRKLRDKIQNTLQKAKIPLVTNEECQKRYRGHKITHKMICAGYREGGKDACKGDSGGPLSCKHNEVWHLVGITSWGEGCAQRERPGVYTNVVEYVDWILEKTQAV
Chain of FXIa (P03951 19-387 partner): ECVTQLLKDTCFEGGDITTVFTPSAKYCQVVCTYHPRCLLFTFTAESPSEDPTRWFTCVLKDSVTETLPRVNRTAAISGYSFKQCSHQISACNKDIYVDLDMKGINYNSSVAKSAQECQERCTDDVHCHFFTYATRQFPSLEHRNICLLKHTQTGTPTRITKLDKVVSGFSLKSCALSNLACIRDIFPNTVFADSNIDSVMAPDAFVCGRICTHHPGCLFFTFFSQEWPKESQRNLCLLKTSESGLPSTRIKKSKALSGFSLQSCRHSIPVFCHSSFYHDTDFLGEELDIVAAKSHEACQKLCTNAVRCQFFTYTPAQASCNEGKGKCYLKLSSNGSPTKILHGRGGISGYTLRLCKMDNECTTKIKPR
The target in a further series is Plasmin (Homo sapiens (Human), UniProt P00747). In words: Determination of related protease inhibition: Plasmin (fluorogenic substrate at Km). It counts as biochemical. Conditions: 25° C. As for the experimental part: as §2, §3
Chain of Plasmin (P00747 581-810): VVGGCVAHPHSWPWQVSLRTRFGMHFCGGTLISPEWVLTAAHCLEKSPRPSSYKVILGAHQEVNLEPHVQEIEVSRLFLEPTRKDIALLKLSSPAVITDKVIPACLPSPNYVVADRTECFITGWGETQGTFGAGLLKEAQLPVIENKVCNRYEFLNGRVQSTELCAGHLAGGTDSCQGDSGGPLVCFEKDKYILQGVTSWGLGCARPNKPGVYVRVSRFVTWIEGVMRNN
Chain of Plasmin (P00747 97-580 partner): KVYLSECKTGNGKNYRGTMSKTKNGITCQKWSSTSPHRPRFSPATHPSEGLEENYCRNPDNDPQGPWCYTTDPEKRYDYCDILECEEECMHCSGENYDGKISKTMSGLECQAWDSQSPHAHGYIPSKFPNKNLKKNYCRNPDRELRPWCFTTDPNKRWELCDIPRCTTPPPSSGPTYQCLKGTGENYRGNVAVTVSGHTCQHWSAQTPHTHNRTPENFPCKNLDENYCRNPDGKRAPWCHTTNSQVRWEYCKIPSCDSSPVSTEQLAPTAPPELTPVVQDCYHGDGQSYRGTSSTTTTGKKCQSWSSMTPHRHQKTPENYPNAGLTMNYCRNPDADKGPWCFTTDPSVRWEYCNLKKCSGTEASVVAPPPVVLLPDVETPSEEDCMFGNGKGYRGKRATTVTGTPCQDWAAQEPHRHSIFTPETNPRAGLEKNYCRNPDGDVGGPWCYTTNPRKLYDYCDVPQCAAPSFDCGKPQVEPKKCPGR
Another series addresses KLK1 (Homo sapiens (Human), UniProt P06870). Description: Determination of related protease inhibition: KLK1 (fluorogenic substrate at Km). It counts as biochemical. Conditions: 25° C. A digest of the protocol: as §1
The next series concerns the target FXa (Homo sapiens (Human), UniProt P00742). Description: Determination of related protease inhibition: FXa (fluorogenic substrate at Km). It is filed as biochemical. Conditions: 25° C. A digest of the protocol: as §1
The target of the next series is Human Factor XIIa (Homo sapiens (Human), UniProt P00748). Description: Determination of FXIIa inhibition (fluorogenic substrate H-DPro-Phe-Arg-AFC, IC50 assay). It counts as biochemical. Conditions: substrate H-DPro-Phe-Arg-AFC at Km, 25° C.; class scale A-G. A digest of the protocol:
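Human FXIIa incubated at 25° C with fluorogenic substrate H-DPro-Phe-Arg-AFC at its Km concentration and varying compound concentrations. Fluorescence release monitored over 5 min at 25° C; linear rate expressed as % of uninhibited activity to derive IC50.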

A short description of series [1]: Pharmacokinetics following a single intravenous dose and a single oral dose in male Sprague-Dawley rats (oral bioavailability, half-life). It is filed as in vivo. Conditions: rat, plasma, 10% DMSO/10% Cremophor EL/80% SWFI; for bioavailability: read-out: F % (oral bioavailability). As for the experimental part:
Pharmacokinetic studies of the compounds in Table 16 were performed to assess the pharmacokinetics following a single intravenous dose and a single oral dose in male Sprague-Dawley rats. Two rats were given a single intravenous dose of 1 mL/kg of a nominal 1 mg/mL (1 mg/kg) composition of test compound in 10% DMSO/10% Cremophor EL/80% SWFI vehicle. Example 2191 was dosed at 1 mL/kg of a nominal 2 mg/mL (2 mg/kg) using the same vehicle.
Two rats were given a single oral dose of 5 mL/kg of a nominal 1 mg/mL (5 mg/kg) composition of test compound in 10% DMSO/10% Cremophor EL/80% SWFI vehicle. Example 2191 was dosed at 5 mL/kg of a nominal 2 mg/mL (10 mg/kg) using the same vehicle.
Following intravenous dosing, blood samples were collected over a period of 12 h. Sample times were 2, 5, 15 and 30 min then 1, 2, 4, 6, and 12 h. Following oral dosing, blood samples were collected over a period of 24 h. Sample times were 5, 15 and 30 min then 1, 2, 4, 6, 8, 12 and 24 h.
Following collection, blood samples were centrifuged and the plasma fraction analysed for concentration of test compound by LCMS. Oral bioavailability and half-life calculations from these studies were obtained using Phoenix WinNonlin (v8.0) and are shown below: […]

Chain of KLK1 (P06870 25-262): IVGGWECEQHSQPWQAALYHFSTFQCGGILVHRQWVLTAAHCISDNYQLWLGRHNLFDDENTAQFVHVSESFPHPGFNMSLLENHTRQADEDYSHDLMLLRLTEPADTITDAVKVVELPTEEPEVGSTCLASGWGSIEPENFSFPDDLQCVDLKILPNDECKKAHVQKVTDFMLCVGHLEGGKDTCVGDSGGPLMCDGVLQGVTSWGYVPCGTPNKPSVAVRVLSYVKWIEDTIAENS
Chain of Human Factor XIIa (P00748 373-615): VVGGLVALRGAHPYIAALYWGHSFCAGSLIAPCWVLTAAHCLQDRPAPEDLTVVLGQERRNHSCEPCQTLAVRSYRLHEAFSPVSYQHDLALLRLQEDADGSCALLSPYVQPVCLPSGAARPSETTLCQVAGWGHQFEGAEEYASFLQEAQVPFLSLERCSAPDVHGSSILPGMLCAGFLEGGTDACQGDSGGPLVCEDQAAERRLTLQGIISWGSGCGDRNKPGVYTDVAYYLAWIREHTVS
Chain of FXa (P00742 235-488): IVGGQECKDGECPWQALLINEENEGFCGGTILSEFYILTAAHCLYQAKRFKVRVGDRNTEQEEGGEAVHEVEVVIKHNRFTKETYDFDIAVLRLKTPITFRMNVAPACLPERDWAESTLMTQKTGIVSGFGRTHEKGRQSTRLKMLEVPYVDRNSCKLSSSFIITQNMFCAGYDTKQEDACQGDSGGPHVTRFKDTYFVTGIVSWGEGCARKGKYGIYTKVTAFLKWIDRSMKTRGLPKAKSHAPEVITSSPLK
Chain of FXa (P00742 41-179 partner): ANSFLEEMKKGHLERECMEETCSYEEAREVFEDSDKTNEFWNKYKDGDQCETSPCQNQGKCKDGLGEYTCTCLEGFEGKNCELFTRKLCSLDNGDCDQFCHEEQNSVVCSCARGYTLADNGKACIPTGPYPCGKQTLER

Take `Nc1nccc2c(NCc3ccc(N4CCn5ccnc5C4)nc3)cccc12` [Example 1128, 5-N-[(6-{5H,6H,8H-imidazo[1,2-a]piperazin-7-yl}pyridin-3-yl)methyl]isoquinoline-1,5-diamine]: the IC50 on Thrombin was 10 to 40 µM; against Trypsin, over 40 µM; at Plasma Kallikrein, over 40 µM; on FXIa, over 40 µM; on Plasmin, over 40 µM; against KLK1, 3 to 10 µM. Besides, the IC50 against FXa is over 40 µM; on Human Factor XIIa, 0.3 to 1 µM.

Regarding `CN1CCC(COc2cc(CNc3ccc4cnccc4c3)ccn2)CC1` [Example 4262, N-({2-[(1-methylpiperidin-4-yl)methoxy]pyridin-4-yl}methyl)isoquinolin-6-amine], the IC50 at Thrombin was over 40 µM; against Trypsin it was over 40 µM; at Plasma Kallikrein, 10 to 40 µM; against FXIa, over 40 µM; against Plasmin, over 40 µM; against KLK1, 10 to 40 µM. The IC50 against FXa fell in the range of 10 to 40 µM; against Human Factor XIIa, 3 to 10 µM.

As to `Nc1ncc(Cl)c2cc(NCc3ccnc(N4CCn5ccnc5C4)c3)ccc12` [Example 4437, 4-chloro-6-N-[(2-{5H,6H,8H-imidazo[1,2-a]pyrazin-7-yl}pyridin-4-yl)methyl]isoquinoline-1,6-diamine], the IC50 on Thrombin was 10 to 40 µM; against Trypsin, over 40 µM; on Plasma Kallikrein, over 40 µM; against FXIa, over 40 µM; at Plasmin, over 40 µM; against KLK1 it was 3 to 10 µM. Also, the IC50 was 3 to 10 µM against FXa and 0.1 to 0.3 µM against Human Factor XIIa.

As for `CN1CCC(COc2cc(CNc3cc4ccnc(N)c4cn3)ccn2)CC1` [Example 4271, 6-N-({2-[(1-methylpiperidin-4-yl)methoxy]pyridin-4-yl}methyl)-2,7-naphthyridine-1,6-diamine], the IC50 was 10 to 40 µM at Thrombin; over 40 µM against Trypsin; 10 to 40 µM on Plasma Kallikrein; over 40 µM at FXIa; over 40 µM against Plasmin; 10 to 40 µM against KLK1. Further, the results for the IC50 at FXa and against Human Factor XIIa were 0.3 to 1 µM and 1 to 3 µM, respectively.

With `Nc1ncc(Cl)c2cc(NCc3ccnc(OCC4CCn5ccnc5C4)c3)ccc12` (single isomer, unassigned) [Example 4438, (S*)-4-chloro-N6-((2-((5,6,7,8-tetrahydroimidazo[1,2-a]pyridin-7-yl)methoxy)pyridin-4-yl)methyl)isoquinoline-1,6-diamine], the IC50 at Thrombin is 10 to 40 µM; against Trypsin, over 40 µM; on Plasma Kallikrein, 10 to 40 µM; against FXIa it was over 40 µM; on Plasmin it was over 40 µM; at KLK1, 3 to 10 µM. The values for the IC50 on FXa and on Human Factor XIIa were 10 to 40 µM and 0.1 to 0.3 µM, respectively.

For the molecule `CC(C)N1C[C@@H]2C[C@H]1CN2CCc1ccc(CNc2cccc3c(N)nccc23)c(F)c1` (stereo in doubt) [Example 2212, N5-[[2-fluoro-4-[2-[(1S,4S)-5-isopropyl-2,5-diazabicyclo[2.2.1]heptan-2-yl]ethyl]phenyl]methyl]isoquinoline-1,5-diamine], the IC50 on Thrombin is over 40 µM; at Trypsin it was over 40 µM; at Plasma Kallikrein, 3 to 10 µM; against FXIa, over 40 µM; at Plasmin, over 40 µM; at KLK1, 10 to 40 µM. The IC50 is over 40 µM against FXa and 0.1 to 0.3 µM against Human Factor XIIa. Further, the half-life in series [1] came to 4.34 h. Besides, the bioavailability in series [1] turned out to be 6.8%.

Take `Cc1cn2c(n1)CC(COc1cc(CNc3cccc4c(N)nccc34)ccn1)CC2` (single isomer, unassigned) [Example 4446, (S*)-N5-((2-((2-methyl-5,6,7,8-tetrahydroimidazo[1,2-a]pyridin-7-yl)methoxy)pyridin-4-yl)methyl)isoquinoline-1,5-diamine]: the IC50 on Thrombin is over 40 µM; against Trypsin, 10 to 40 µM; at Plasma Kallikrein, 3 to 10 µM; against FXIa it was 10 to 40 µM; against Plasmin it was over 40 µM; against KLK1 it was 3 to 10 µM. Moreover, the IC50 against FXa lay within 3 to 10 µM; against Human Factor XIIa, 0.01 to 0.1 µM.

On to `CN1CCC(COc2cc(CNc3ccc4c(N)ncc(Cl)c4c3)ccn2)CC1` [Example 4268, 4-Chloro-N6-((2-((1-methylpiperidin-4-yl)methoxy)pyridin-4-yl)methyl)isoquinoline-1,6-diamine], for which the IC50 at Thrombin is over 40 µM; against Trypsin it was over 40 µM; at Plasma Kallikrein, 10 to 40 µM; against FXIa, over 40 µM; on Plasmin, over 40 µM; against KLK1 it was 1 to 3 µM. Further, the IC50 is 3 to 10 µM at FXa and 0.01 to 0.1 µM on Human Factor XIIa. The same molecule displayed a half-life in series [1] of 12.4 h. The bioavailability in series [1] amounted to 3%.
